Reference: patent US11746374B2, “Methods and platform for screening and selecting metabolites and their receptors” (BOARD OF REGENTS, THE UNIVERSITY OF TEXAS SYSTEM, priority 2017, dated 2023)
“And” between values parts separate entries of the source, which are not always exact repeats. Equal values may be shown once. “Also recorded” adds a separate entry of the source.

Key:
[1] = molecular target: T1, P2X2 (Homo sapiens, UniProt Q9UBL9); assay: Plate-based aequorin luminescence assay of P2X2 expressed in yeast; type: cell-based; design: expressed in transfected cells; host or cells: Saccharomyces cerevisiae BY4741 dCne1p, genome-integrated under the GAL1 promoter, aequorin on a high-copy plasmid; details: for agonism / gating of P2X2: aequorin luminescence; for EC50: dose-response, area under luminescence curve
T1 sequence (Q9UBL9 1-471): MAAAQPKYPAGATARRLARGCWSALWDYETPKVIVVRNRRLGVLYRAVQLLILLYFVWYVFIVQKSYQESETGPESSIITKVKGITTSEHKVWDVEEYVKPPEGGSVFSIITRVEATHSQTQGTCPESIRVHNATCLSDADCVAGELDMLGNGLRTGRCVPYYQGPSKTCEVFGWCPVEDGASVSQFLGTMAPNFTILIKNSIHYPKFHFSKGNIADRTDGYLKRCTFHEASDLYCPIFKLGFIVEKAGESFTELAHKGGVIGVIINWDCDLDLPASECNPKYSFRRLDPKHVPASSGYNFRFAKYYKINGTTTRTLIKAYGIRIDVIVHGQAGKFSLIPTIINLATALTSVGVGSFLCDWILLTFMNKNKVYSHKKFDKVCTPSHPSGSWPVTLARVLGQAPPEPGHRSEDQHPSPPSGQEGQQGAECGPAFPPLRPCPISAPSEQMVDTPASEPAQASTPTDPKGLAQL
Procedure: Ion channel activity in yeast was tested with the purinergic P2X ion channel family. Channel gating was assessed by an aequorin assay in which aequorin is co-expressed with the receptor and, upon addition of the prosthetic group coelenterazine and addition of calcium, blue light is released. The aequorin-based functional assay was performed in all seven P2X receptors (FIG. 8). P2X1-7 were integrated into the chromosome to mitigate copy number variation between clones and were induced with galactose with the pGal1 promoter. […] Among those receptors that didn't work, it was suspected that improvements in expression and trafficking can improve functionality. For example, by modulating trafficking domains within the P2X4 receptor, aggregation was reduced in vesicles (FIG. 9), and it is believed that this tactic can be employed in other receptors. […] This can be because P2X2 has the slowest desensitization rates of the family (and is often considered “non-desensitizing”) and has the highest unitary conductance (30 pS).
To determine whether or not this truncated channel gated in yeast, an aequorin-based functional assay was used. Here aequorin, a bioluminescent protein, emits a photon upon binding calcium. This is done with the aid of coelenterazine, which must be added exogenously to yeast. The reaction is not catalytic, and the off-rate of calcium is too slow to observe on the timescales utilized in our assays. To optimize conditions for expression of both the receptor and reporter, a combination of integration, low-copy, and high-copy vectors was used. At this point, it was only possible to produce a signal upon addition of ATP, the native ligand, when both the receptor and reporter were expressed on high-copy plasmids (FIG. 56).
BY4741ΔCne1p cells were transformed with vectors containing P2X variants. Transformants were validated and made competent for a subsequent transformation with a vector containing aequorin under the expression of the constitutive PGK2 promoter. Overnight cells were induced with 2% […] for 20 hours. Following receptor expression, cells were collected by centrifugation and concentrated to 500 μL. The concentrated cells were then incubated with 5 μL of 1 mg/mL coelenterazine for 30 minutes at room temperature. Washed cells were then resuspended in softening buffer (1 M Sorbitol, 25 mM EDTA, 50 mM DTT), followed by washes in 1 M sorbitol and water. Cells were then resuspended in 50 mM MES/Tris pH 6.5 and aliquoted into a 96-well plate. Using an F500, 25 μL of cells were monitored for luminescence for 5 seconds. Upon addition of ligand or buffer (100 μL), cells were monitored for luminescence for varying times. Cell lysis was performed with the addition of 100 μL Tween20. For inhibition, varying concentrations of suramin were incubated with cells. Luminescence was monitored before and after the addition of 100 μL of 10 μM ATP. Areas under the curve were calculated and plotted against a negative control to determine the IC50.

[2] = molecular target: T2, 3,5,7-trioxododecanoyl-CoA synthase (OLS) (Cannabis sativa, UniProt B1Q2B6); details: cited from earlier work
T2 sequence (B1Q2B6 1-385): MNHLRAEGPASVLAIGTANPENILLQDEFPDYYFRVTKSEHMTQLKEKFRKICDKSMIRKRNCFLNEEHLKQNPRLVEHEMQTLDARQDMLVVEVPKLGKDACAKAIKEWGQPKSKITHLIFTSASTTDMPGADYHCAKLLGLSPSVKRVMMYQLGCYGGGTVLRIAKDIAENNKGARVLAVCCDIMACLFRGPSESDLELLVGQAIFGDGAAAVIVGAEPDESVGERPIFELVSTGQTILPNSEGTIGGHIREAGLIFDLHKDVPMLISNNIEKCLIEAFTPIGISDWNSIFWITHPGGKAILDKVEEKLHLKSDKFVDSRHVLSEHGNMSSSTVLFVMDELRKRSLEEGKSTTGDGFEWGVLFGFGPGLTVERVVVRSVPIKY

[3] = test system: BY4741; assay: Metabolite toxicity determined by growth assays; type: cell-based, Saccharomyces cerevisiae; details: 4 mM of each metabolite, compared to synthetic media only
Procedure: Measurements of cell density (OD600) were taken in 10 min intervals. Each condition was tested in triplicate. For hexanoate growth conditions of aromatic prenyltransferase variants, transformed cells were seeded for 48 hrs and diluted 1:25 in 96-well grow-blocks in media containing 1-5 mM hexanoate. Measurements of cell density were taken in 24 hr intervals using an F500 plate reader. Final screening was performed with 10 mM hexanoate, 1% acetate supplemented synthetic complete media in 50 mL culture volumes.

[4] = molecular target: T3, cannabidiolic acid synthase (CBDA synthase) (Cannabis sativa, UniProt A6P6V9); details: cited from earlier work
T3 sequence (A6P6V9 29-544): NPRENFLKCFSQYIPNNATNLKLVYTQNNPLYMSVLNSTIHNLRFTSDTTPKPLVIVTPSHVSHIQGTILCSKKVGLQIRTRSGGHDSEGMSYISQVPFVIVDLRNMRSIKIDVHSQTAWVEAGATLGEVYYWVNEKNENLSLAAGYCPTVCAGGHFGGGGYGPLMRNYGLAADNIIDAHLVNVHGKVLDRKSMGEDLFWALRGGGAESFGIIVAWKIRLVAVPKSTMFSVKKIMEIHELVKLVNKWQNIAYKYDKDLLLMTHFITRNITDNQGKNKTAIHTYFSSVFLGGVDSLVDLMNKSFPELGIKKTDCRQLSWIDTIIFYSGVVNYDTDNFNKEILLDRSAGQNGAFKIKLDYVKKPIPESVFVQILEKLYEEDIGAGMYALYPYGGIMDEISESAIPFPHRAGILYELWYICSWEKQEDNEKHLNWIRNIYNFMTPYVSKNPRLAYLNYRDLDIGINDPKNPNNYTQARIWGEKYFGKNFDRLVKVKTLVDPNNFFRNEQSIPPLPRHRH

[5] = molecular target: T4, Tetrahydrocannabinolic acid synthase (THCA synthase) WT (Cannabis sativa, UniProt Q8GTB6); details: cited from earlier work
T4 sequence (Q8GTB6 29-545): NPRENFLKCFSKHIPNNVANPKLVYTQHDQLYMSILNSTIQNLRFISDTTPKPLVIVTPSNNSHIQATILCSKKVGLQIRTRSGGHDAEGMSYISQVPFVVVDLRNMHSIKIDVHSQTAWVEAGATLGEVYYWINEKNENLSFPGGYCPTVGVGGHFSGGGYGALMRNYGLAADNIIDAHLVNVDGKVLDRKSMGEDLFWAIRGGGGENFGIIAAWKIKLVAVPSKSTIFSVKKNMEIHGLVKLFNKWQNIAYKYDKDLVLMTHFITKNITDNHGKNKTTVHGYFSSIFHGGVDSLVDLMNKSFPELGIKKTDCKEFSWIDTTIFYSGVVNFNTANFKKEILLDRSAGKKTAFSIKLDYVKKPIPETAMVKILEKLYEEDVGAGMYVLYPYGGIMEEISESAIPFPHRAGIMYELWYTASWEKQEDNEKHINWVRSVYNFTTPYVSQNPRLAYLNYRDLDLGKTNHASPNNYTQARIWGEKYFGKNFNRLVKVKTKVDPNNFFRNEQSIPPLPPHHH

[6] = molecular target: T5, CsAAE1 Hexanoyl CoA Synthase (Cannabis sativa, UniProt H9A1V3); details: cited from earlier work
T5 sequence (H9A1V3 1-720): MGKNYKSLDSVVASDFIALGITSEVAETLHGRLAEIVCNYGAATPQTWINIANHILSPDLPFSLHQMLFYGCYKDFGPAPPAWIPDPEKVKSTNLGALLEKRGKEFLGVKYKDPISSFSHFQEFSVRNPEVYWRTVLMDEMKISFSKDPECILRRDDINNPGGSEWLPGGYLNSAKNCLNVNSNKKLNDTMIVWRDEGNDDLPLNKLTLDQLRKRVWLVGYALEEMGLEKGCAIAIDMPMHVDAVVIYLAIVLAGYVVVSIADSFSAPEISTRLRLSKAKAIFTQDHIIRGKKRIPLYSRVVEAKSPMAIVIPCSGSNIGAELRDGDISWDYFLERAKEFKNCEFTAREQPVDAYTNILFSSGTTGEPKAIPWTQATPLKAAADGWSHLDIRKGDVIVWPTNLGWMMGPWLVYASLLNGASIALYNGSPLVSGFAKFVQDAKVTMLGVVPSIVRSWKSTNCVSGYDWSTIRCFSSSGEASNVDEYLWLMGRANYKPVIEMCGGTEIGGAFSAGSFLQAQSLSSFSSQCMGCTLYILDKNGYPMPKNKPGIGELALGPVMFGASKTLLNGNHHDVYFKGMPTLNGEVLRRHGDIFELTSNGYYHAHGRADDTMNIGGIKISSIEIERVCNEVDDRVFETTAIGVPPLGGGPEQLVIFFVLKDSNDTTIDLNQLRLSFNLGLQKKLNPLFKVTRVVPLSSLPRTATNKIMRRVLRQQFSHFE

[7] = molecular target: T6, human CB2 receptor (Homo sapiens, UniProt P34972); type: cell-based; details: exogenously added ligand; GFP or zsGreen1 reporter
T6 construct: expressed in transfected cells; host or cells: Saccharomyces cerevisiae strains JG03-, JG04-, JG05-2.0 (zsGreen1 reporter), high-copy plasmid
T6 sequence (P34972 whole entry): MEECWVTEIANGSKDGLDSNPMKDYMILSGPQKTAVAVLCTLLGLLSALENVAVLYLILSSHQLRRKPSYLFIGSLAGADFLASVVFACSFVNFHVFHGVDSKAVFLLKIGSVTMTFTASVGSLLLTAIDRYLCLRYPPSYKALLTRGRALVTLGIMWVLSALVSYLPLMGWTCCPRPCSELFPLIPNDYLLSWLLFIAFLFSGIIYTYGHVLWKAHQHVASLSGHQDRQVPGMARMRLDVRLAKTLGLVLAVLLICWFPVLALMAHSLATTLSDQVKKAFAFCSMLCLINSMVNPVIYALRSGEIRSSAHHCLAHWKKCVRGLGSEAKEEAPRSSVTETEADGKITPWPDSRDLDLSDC
Procedure: The ability of three of strains to couple to the human CB2 receptor expressed on a high-copy number plasmid was tested. Ga subunits that were predicted to couple to the receptor (Shim et al., 2013) were used. The dose-response of 2-arachidonyl glycerol, the native endocannabinoid, in strains differing only in the terminal 5 amino acids of the Gα protein. Control receptors were built that contained stop codons in the middle of the gene. These are referred to as ‘broken’ receptors.
Cells were washed 3 times and resuspended in PBS. Fluorescent (485 nm/515 nm) and cell density (600 nm) measurements were taken on a Cytation 5. Data were plotted and analyzed using SigmaPlot10. For CB2, strains JG03-, JG04-, and JG05-2.0 were transformed and treated the same. Broken receptor (stop codons) were also included in these assays.

[8] = molecular target: wild-type CB2 receptor (Homo sapiens, UniProt P34972); details: Gertsch 2008; cited from earlier work
Sequence of wild-type CB2 receptor (P34972 whole entry): as above

Compound: 2′(3′)-O-(4-Benzoylbenzoyl)adenosine-5′-triphosphate [BzATP]
- amplitude of generated signal lower than either ATP or 2-Cl-ATP [1]: 3 orders of magnitude
- duration that the channel remains open, longer [1]: ~10 fold
- peak amplitude relative to that achieved with ATP [1]: approximately 20%
- agonism / gating of P2X2 [1]: partial agonism
- EC50 [1]: 29.1 ± 6 µM

Compound: Nc1nc(Cl)nc2c1ncn2[C@@H]1O[C@H](COP(=O)(O)OP(=O)(O)OP(=O)(O)O)[C@@H](O)[C@H]1O [2-Chloro ATP, 2-Chloro-Adenosinetriphosphate]
- agonism / gating of P2X2 [1]: full agonist behavior
- EC50 [1]: 26.7 ± 1.5 µM

Compound: CCCCCC(=O)CC(=O)CC(=O)CC(=O)SCCNC(=O)CCNC(=O)[C@H](O)C(C)(C)COP(=O)(O)OP(=O)(O)OC[C@H]1O[C@@H](n2cnc3c(N)ncnc32)[C@H](O)[C@@H]1OP(=O)(O)O [3,5,7-trioxododecanoyl-CoA]
- Km [2]: 56.9 µM
- kcat [2]: 0.0577 s⁻¹

Compound: Nc1ncnc2c1ncn2[C@@H]1O[C@H](COP(=O)(O)OP(=O)(O)NP(=O)(O)O)[C@@H](O)[C@H]1O [AMP-PNP, adenylyl-imidodiphosphate]
- agonism / gating of P2X2 [1]: did not gate P2X2

Compound: C=C(C)[C@@H]1CCC(C)=C[C@H]1c1c(O)cc(CCCCC)cc1O [CBD, cannabidiol]
- effect on yeast growth [3]: modest growth defect; also recorded: far less inhibitory

Compound: CCCCCc1cc(O)c(C/C=C(\C)CCC=C(C)C)c(O)c1C(=O)O [CBGA, Cannabigerolic acid]
- effect on yeast growth [3]: modest growth defect; also recorded: far less inhibitory
- Km [4]: 137 µM
- kcat [4]: 0.19 s⁻¹
- Km [5]: 134 µM
- kcat [5]: .201 s⁻¹

Compound: CCCCCC(=O)O [Hexanoate, Hexanoic acid]
- effect on yeast growth [3]: severely inhibit growth
- effect on yeast growth ([3]; listed as Hexanoic acid): strongly inhibit growth
- Km [6]: 3700 µM
- kcat [6]: 2.0 s⁻¹

Compound: CCCCCC(=O)SCCNC(=O)CCNC(=O)[C@H](O)C(C)(C)COP(=O)(O)OP(=O)(O)OC[C@H]1O[C@@H](n2cnc3c(N)ncnc32)[C@H](O)[C@@H]1OP(=O)(O)O [Hexanoyl-CoA]
- Km [2]: 63.1 µM and 60.8 µM

Compound: CCCCCc1cc(O)cc(O)c1 [olivetol]
- effect on yeast growth [3]: severely inhibit growth

Compound: CCCCCc1cc(O)cc(O)c1C(=O)O [olivetolic acid]
- effect on yeast growth [3]: strongly inhibit growth

Compound: C=C1CC/C=C(\C)CC[C@@H]2[C@@H]1CC2(C)C [β-caryophyllene]
- reporter response of CB2-expressing yeast to ligand [7]: dose-dependent up-regulation of GFP expression; also recorded: responded to high concentration
- detectable level of activation with the wild-type CB2 receptor [8]: 1.9 µM
